In one assay the target is PIM2 (Homo sapiens, UniProt Q9P1W9). The experiment in a line: KinaseGlo Pim2 ATP depletion assay. The class given is biochemical. Summed up: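 Luminescent ATP-depletion read-out of PIM2 phosphorylating BAD peptide (RSRHSSYPAGT-OH). Final conditions: 5 nM PIM2, 4 μM ATP, 10 μM peptide, 2.5% DMSO in 50 mM HEPES pH 7.5, 5 mM MgCl2, 1 mM DTT, 0.05% BSA. Enzyme–peptide preincubated 15 min with compound; reaction run to ~50% ATP depletion.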

The next assay deals with PIM1 (Homo sapiens, UniProt P11309). The experiment in a line: KinaseGlo Pim1 ATP depletion assay. The class given is biochemical. The procedure, abridged: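 2.5 nM PIM1 preincubated 15 min with compound and 40 μM BAD peptide in 50 mM HEPES pH 7.5, 5 mM MgCl2, 1 mM DTT, 0.05% BSA, 2.5% DMSO. The reaction was started with 20 μM ATP (final) and run to about 50% ATP depletion. Remaining ATP read by KinaseGlo Plus luminescence to give IC50.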
PIM1, sequence (P11309 whole entry): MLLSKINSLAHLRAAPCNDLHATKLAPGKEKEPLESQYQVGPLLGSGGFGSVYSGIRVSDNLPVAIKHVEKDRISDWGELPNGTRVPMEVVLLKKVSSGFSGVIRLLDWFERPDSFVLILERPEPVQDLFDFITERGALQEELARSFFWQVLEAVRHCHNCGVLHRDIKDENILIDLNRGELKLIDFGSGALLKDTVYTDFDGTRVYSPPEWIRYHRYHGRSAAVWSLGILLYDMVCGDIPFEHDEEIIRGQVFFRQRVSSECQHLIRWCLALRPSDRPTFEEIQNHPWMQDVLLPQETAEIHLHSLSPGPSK

A further assay addresses PIM3 (Homo sapiens, UniProt Q86V86). Nature of the assay: KinaseGlo Pim3 ATP depletion assay. The class given is biochemical. Summed up:
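Kinase was preincubated 15 min with BAD peptide in HEPES pH 7.5/MgCl2/DTT/BSA before ATP was added. Final concentrations were 40 μM ATP, 100 μM BAD peptide and 2.5% DMSO, with 5 nM enzyme. The reaction ran to ~50% ATP depletion and remaining ATP was read by KinaseGlo Plus luminescence.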

The subject of assay [1] is KMS11 (human myeloma cell line). Nature of the assay: Cell proliferation assay (CellTiter-Glo), KMS11. Format: cell-based. The settings on record: Homo sapiens, KMS-11; KMS11-Luc cells. The procedure, abridged:
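KMS11 cells in IMDM with 10% FBS and sodium pyruvate, seeded at 2000 cells/well on assay day. Compound added at 2× to equal volume of cells, incubated 3 days at 37° C. Viability read by CellTiter-Glo luminescence; EC50 derived.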

A further assay concerns the target GSK3β (Homo sapiens, UniProt P49841). Nature of the assay: GSK3β ATP depletion assay. The class given is biochemical. The conditions noted are these: read-out: GSK3b IC50. The procedure, abridged:
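Human GSK3β (5 nM) preincubated 15 min with 10 μM biotinylated phospho-CREB peptide in pH 7.5 Tris buffer (15 mM MgCl2, 1 mM DTT, 0.1% BSA, 2.5% DMSO). Reaction started with 2 μM ATP and run to about 50% ATP depletion. Remaining ATP measured by KinaseGlo luminescence.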

pEC50, pIC50: −log10 of the molar value.

PIM2, sequence (Q9P1W9 whole entry): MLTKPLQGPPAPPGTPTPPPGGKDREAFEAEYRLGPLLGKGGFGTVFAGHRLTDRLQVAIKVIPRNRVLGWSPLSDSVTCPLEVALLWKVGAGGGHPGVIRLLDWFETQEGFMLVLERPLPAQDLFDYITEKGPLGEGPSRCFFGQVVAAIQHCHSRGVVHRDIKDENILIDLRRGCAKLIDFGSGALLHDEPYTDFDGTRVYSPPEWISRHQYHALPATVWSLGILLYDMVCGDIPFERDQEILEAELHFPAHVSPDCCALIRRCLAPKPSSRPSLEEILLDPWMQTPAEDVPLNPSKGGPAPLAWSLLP
GSK3β, sequence (P49841 whole entry, species assumed): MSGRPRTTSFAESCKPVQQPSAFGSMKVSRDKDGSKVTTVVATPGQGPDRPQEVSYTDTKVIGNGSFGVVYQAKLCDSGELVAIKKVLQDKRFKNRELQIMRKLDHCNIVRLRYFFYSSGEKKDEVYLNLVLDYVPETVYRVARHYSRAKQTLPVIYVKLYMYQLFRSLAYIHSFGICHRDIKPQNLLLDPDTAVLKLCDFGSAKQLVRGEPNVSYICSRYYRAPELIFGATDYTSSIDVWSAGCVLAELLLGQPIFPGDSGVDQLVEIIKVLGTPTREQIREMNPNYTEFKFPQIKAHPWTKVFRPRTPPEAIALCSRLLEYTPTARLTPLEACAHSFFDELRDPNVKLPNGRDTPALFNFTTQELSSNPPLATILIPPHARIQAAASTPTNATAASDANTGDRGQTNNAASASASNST

For the compound `N#CC[C@H]1O[C@@H](c2ccncc2NC(=O)c2ccc(F)c(-c3c(F)cccc3F)n2)CC[C@@H]1O` [Example 46, N-(4-((2R,5S,6R)-6-(cyanomethyl)-5-hydroxytetrahydro-2H-pyran-2-yl)pyridin-3-yl)-6-(2,6-difluorophenyl)-5-fluoropicolinamide], the pIC50 at PIM2 is 6.83; against PIM1 it was 8.15; on PIM3, 7.48; on GSK3β, 6.35. The compound further gave a pEC50 in assay [1] of less than 5.00.
`C[C@H]1O[C@@H](c2ccncc2NC(=O)c2ccc(F)c(-c3ccccc3F)n2)C[C@@H](O)[C@]1(C)O` [Example 93, N-(4-((2R,4R,5S,6R)-4,5-dihydroxy-5,6-dimethyltetrahydro-2H-pyran-2-yl)pyridin-3-yl)-5-fluoro-6-(2-fluorophenyl)picolinamide]: the pIC50 against PIM2 is 7.23; against PIM1, 9.00; against PIM3, 8.30; on GSK3β, 6.93. The compound further had a negative-log EC50 (pEC50) in assay [1] of less than 5.00.
`Nc1cnc(-c2c(F)cccc2F)nc1C(=O)Nc1cnccc1C1=C[C@@H](O)[C@H](O)[C@@H](CCl)O1` [Example 14, 5-amino-N-(4-((2S,3S,4R)-2-(chloromethyl)-3,4-dihydroxy-3,4-dihydro-2H-pyran-6-yl)pyridin-3-yl)-2-(2,6-difluorophenyl)pyrimidine-4-carboxamide]: the pIC50 was 8.70 against PIM2, 9.00 against PIM1, 8.52 against PIM3 and 7.15 at GSK3β. In assay [1], this compound gave a negative-log EC50 (pEC50) of 5.58.
As for `C[C@@H]1O[C@H](c2ccncc2NC(=O)c2csc(-c3c(F)cccc3F)n2)C[C@H](O)[C@H]1O` (stereo in doubt) [Example 135, 2-(2,6-difluorophenyl)-N-(4-((2S,4S,5R,6S)-4,5-dihydroxy-6-methyltetrahydro-2H-pyran-2-yl)pyridin-3-yl)thiazole-4-carboxamide], the pIC50 against PIM2 is 6.83; on PIM1, 9.00; against PIM3, 8.15; on GSK3β, 7.12. Also, in assay [1], the pEC50 was less than 5.00.
As for `C[C@H]1O[C@@H](c2ccncc2NC(=O)c2cccc(-c3ccccc3F)n2)C[C@@H](O)[C@]1(C)O` [Example 92, N-(4-((2R,4R,5S,6R)-4,5-dihydroxy-5,6-dimethyltetrahydro-2H-pyran-2-yl)pyridin-3-yl)-6-(2-fluorophenyl)picolinamide], the pIC50 at PIM2 was 7.80; on PIM1, 9.00; on PIM3, 8.70; at GSK3β, 6.90. This compound had a pEC50 in assay [1] of less than 5.00.
The corresponding values for `N#Cc1ccc(F)c(-c2nc(C(=O)Nc3cnccc3[C@H]3C[C@@H](O)[C@H](O)[C@@H](CCl)O3)ccc2F)c1F` [Example 1, N-(4-((2R,4R,5S,6S)-6-(chloromethyl)-4,5-dihydroxytetrahydro-2H-pyran-2-yl)pyridin-3-yl)-6-(3-cyano-2,6-difluorophenyl)-5-fluoropicolinamide] are 8.30, 7.77, 8.49, 7.48 and 5.03.
The corresponding values for `C[C@H]1O[C@@H](c2ccncc2NC(=O)c2ccc(F)c(-c3c(F)cccc3F)n2)[C@H](O)[C@@H](O)[C@]1(C)O` (stereo in doubt) [Example 81, 6-(2,6-difluorophenyl)-5-fluoro-N-(4-((2S,3R,4R,5S,6R)-3,4,5-trihydroxy-5,6-dimethyltetrahydro-2H-pyran-2-yl)pyridin-3-yl)picolinamide] are 6.14, 7.51, 7.36, 6.07 and less than 5.00.
Consider `C[C@H]1[C@H](C)O[C@H](c2ccncc2NC(=O)c2ccc(F)c(-c3c(F)cccc3F)n2)C[C@@H]1O` (stereo in doubt) [Example 96, 6-(2,6-difluorophenyl)-5-fluoro-N-(4-((2S,4S,5R,6S)-4-hydroxy-5,6-dimethyltetrahydro-2H-pyran-2-yl)pyridin-3-yl)picolinamide], for which the pIC50 against PIM2 was 7.80; against PIM1, 9.00; at PIM3, 8.52; on GSK3β, 6.85. Also, the negative-log EC50 (pEC50) in assay [1] is 5.41.
For the compound `N#CC[C@H]1O[C@@H](c2ccncc2NC(=O)c2ccc(C#N)c(-c3c(F)cccc3F)n2)C[C@@H](O)[C@@H]1O` [Example 47, 5-cyano-N-(4-((2R,4R,5S,6R)-6-(cyanomethyl)-4,5-dihydroxytetrahydro-2H-pyran-2-yl)pyridin-3-yl)-6-(2,6-difluorophenyl)picolinamide], the pIC50 at PIM2 was 6.45; on PIM1 it was 7.24; against PIM3 it was 6.95; at GSK3β, 5.04. The compound further gave a negative logarithm of the EC50 (pEC50) in assay [1] of less than 5.00.
Consider `O=C(Nc1cnccc1C1=C[C@@H](O)[C@H](O)[C@@H](CO)O1)c1ccc(F)c(-c2c(F)cccc2F)n1` [Example 79, 6-(2,6-difluorophenyl)-N-(4-((2R,3S,4R)-3,4-dihydroxy-2-(hydroxymethyl)-3,4-dihydro-2H-pyran-6-yl)pyridin-3-yl)-5-fluoropicolinamide], for which the pIC50 against PIM2 is 7.77; against PIM1, 8.70; against PIM3, 8.52; at GSK3β it was 5.84. The pEC50 in assay [1] is less than 5.00.
The corresponding values for `Nc1cc(F)c(-c2ccccc2F)nc1C(=O)Nc1cnccc1[C@H]1C[C@@H](O)[C@H](O)[C@@H](CCl)O1` [Example 38, 3-amino-N-(4-((2R,4R,5S,6S)-6-(chloromethyl)-4,5-dihydroxytetrahydro-2H-pyran-2-yl)pyridin-3-yl)-5-fluoro-6-(2-fluorophenyl)picolinamide] are 8.52, 9.00, 8.70, 7.82 and 5.16.
`CC[C@]1(O)[C@H](O)C[C@H](c2ccncc2NC(=O)c2c[nH]cc(-c3ccccc3)c2=O)O[C@@H]1C` [Example 179, N-(4-((2R,4R,5S,6R)-5-ethyl-4,5-dihydroxy-6-methyltetrahydro-2H-pyran-2-yl)pyridin-3-yl)-4-oxo-5-phenyl-1,4-dihydropyridine-3-carboxamide]: the pIC50 against PIM2 was 5.51; on PIM1 it was 6.59; against PIM3, 6.88; at GSK3β it was 5.57. The compound further gave a pEC50 in assay [1] of less than 5.00.
`CC[C@]1(O)[C@H](O)C[C@H](c2ccncc2NC(=O)c2nc(-c3cnn(C)c3C)ccc2N)O[C@@H]1C` [Example 156, 3-amino-6-(1,5-dimethyl-1H-pyrazol-4-yl)-N-(4-((2R,4R,5S,6R)-5-ethyl-4,5-dihydroxy-6-methyltetrahydro-2H-pyran-2-yl)pyridin-3-yl)picolinamide]: the pIC50 on PIM2 was 6.27; against PIM1, 7.60; on PIM3, 7.37; at GSK3β, 7.66. This compound also had a pEC50 in assay [1] of less than 5.00.
The corresponding values for `CCC[C@H]1O[C@@H](c2ccncc2NC(=O)c2nc(-c3c(F)cccc3F)ncc2N)C[C@@H](O)[C@@H]1O` [Example 169, 5-amino-2-(2,6-difluorophenyl)-N-(4-((2R,4R,5S,6R)-4,5-dihydroxy-6-propyltetrahydro-2H-pyran-2-yl)pyridin-3-yl)pyrimidine-4-carboxamide] are 8.03, 7.84, 7.88, 5.78 and less than 5.00.
The corresponding values for `C[C@H]1O[C@@H](c2ccncc2NC(=O)c2ccc(F)c(-c3c(F)cccc3F)n2)[C@H](F)[C@@H](O)[C@]1(C)O` (stereo in doubt) [Example 69, 6-(2,6-difluorophenyl)-5-fluoro-N-(4-((2S,3R,4S,5S,6R)-3-fluoro-4,5-dihydroxy-5,6-dimethyltetrahydro-2H-pyran-2-yl)pyridin-3-yl)picolinamide] are 6.30, 8.40, 7.28, 5.74 and 5.40.
The corresponding values for `C[C@H]1O[C@@H](c2ccncc2NC(=O)c2nc(-c3nccs3)ccc2N)C[C@@H](O)[C@]1(C)O` [Example 147, 3-amino-N-(4-((2R,4R,5S,6R)-4,5-dihydroxy-5,6-dimethyltetrahydro-2H-pyran-2-yl)pyridin-3-yl)-6-(thiazol-2-yl)picolinamide] are 7.15, 7.76, 7.73, 5.88 and less than 5.00.

Source of the values: patent US20130109682A1, “CYCLIC ETHER COMPOUNDS USEFUL AS KINASE INHIBITORS” (NOVARTIS AG, priority 2010, published 2013).
